Columns and labels:
[1] = system: four MDR protease variants; details: four clinical MDR isolates, enzyme inhibition assays, relative to NL4-3 (WT)
Source text: HIV protease Forster Resonance Energy Transfer (FRET) substrate I used in the IC50 determination and substrate interference was purchased from AnaSpec, Inc. (Fremont, CA, USA). The US FDA-approved HIV-1 protease inhibitors were kindly provided by the NIH AIDS Research and Reference Reagent Program (www.aidsreagent.org). The CA/p2 pseudopeptide with a reduced scissile peptide bond [-ψ(CH2NH)-] was synthesized in the Department of Chemistry, Wayne State University. The nine substrate hepta-peptides were purchase from SynBioSci Corporation, Livermore, CA, USA. […] The IC50 determination was described previously. […] The protease concentration was adjusted to a substrate cleavage velocity of 5 Relative Fluorescence Units (RFU)/min in the absence of regular substrate. […] Upon the addition of the HIV-1 protease, the fluorescent signal emitted through the cleavage of the FRET substrate was recorded using SpectraMax M5 (Molecular Devices, Sunnyvale, CA, USA) at an excitation wavelength of 340 nm and an emission wavelength of 490 nm. The average velocity of FRET substrate cleavage in RFU/min was calculated based on fluorescent signal at 30 time point over 30 min. In the control experiment, the average velocity of FRET substrate cleavage was determined in the absence of regular substrates. […]

HIV-1 protease MDR 1385 = molecular target: T1, HIV-1 protease MDR 1385 (Human immunodeficiency virus type 1 group M subtype B, UniProt P12497, A559V/I581L/L498F/L551P/L577M/L578M/M524I/M534I/N525D/Q495K/R545K/V570T); test: HIV-1 protease inhibition (FRET substrate cleavage), MDR 1385; type: biochemical; details: FRET substrate I, 0.1 M sodium acetate, 1.0 M NaCl, 1.0 mM EDTA, 1.0 mM DTT, 10% DMSO, 1 mg/mL BSA, pH 4.7, fluorescence 340/490 nm, read-out: IC50 of HIV-1 protease inhibitors
T1 construct: made in house; host or cells: E. coli (pET21b)
Method: (§1) The HIV-1 protease reaction buffer was 0.1 M sodium acetate, 1.0 M sodium chloride, 1.0 mM ethylenediaminetetraacetic acid (EDTA), 1.0 mM DTT, 10% dimethylsulfoxide (DMSO), and 1 mg/mL bovine serum albumin (BSA) at pH 4.7. The protease concentration was adjusted to a substrate cleavage velocity of 5 Relative Fluorescence Units (RFU)/min in the absence of regular substrate. […] Upon the addition of the HIV-1 protease, the fluorescent signal emitted through the cleavage of the FRET substrate was recorded using SpectraMax M5 (Molecular Devices, Sunnyvale, CA, USA) at an excitation wavelength of 340 nm and an emission wavelength of 490 nm. The average velocity of FRET substrate cleavage in RFU/min was calculated based on fluorescent signal at 30 time point over 30 min.

HIV-1 protease MDR 769 = molecular target: T2, HIV-1 protease MDR 769 (Human immunodeficiency virus type 1 group M subtype B, UniProt P12497, A559V/I542V/I550V/I572V/L498I/L551P/L578M/M524V/M534L/Q495K/V570A); test: HIV-1 protease inhibition (FRET substrate cleavage), MDR 769; type: biochemical; details: FRET substrate I, 0.1 M sodium acetate, 1.0 M NaCl, 1.0 mM EDTA, 1.0 mM DTT, 10% DMSO, 1 mg/mL BSA, pH 4.7, fluorescence 340/490 nm, read-out: IC50 of HIV-1 protease inhibitors
T2 construct: made in house; host or cells: E. coli (pET21b)
Method: as §1

HIV-1 protease MDR 3761 = molecular target: T3, HIV-1 protease MDR 3761 (Human immunodeficiency virus type 1 group M subtype B, UniProt P12497, A559I/G561T/I503V/I552V/I572V/I581L/K508I/L498I/L507I/L551P/L578M/M534I/P567S/Q495K/T500A); test: HIV-1 protease inhibition (FRET substrate cleavage), MDR 3761; type: biochemical; details: FRET substrate I, 0.1 M sodium acetate, 1.0 M NaCl, 1.0 mM EDTA, 1.0 mM DTT, 10% DMSO, 1 mg/mL BSA, pH 4.7, fluorescence 340/490 nm, read-out: IC50 of HIV-1 protease inhibitors
T3 construct: made in house; host or cells: E. coli (pET21b)
Method: as §1

HIV-1 protease MDR 807 = molecular target: T4, HIV-1 protease MDR 807 (Human immunodeficiency virus type 1 group M subtype B, UniProt P12497, A559V/G536V/I542T/I550V/I581L/L498I/L551Q/M534I/Q495K/Q549N/R529K/T562A/V565I/V570A); test: HIV-1 protease inhibition (FRET substrate cleavage), MDR 807; type: biochemical; details: FRET substrate I, 0.1 M sodium acetate, 1.0 M NaCl, 1.0 mM EDTA, 1.0 mM DTT, 10% DMSO, 1 mg/mL BSA, pH 4.7, fluorescence 340/490 nm, read-out: IC50 of HIV-1 protease inhibitors
T4 construct: made in house; host or cells: E. coli (pET21b)
Method: as §1

HIV-1 protease NL4-3 = molecular target: T5, HIV-1 protease NL4-3 (Human immunodeficiency virus type 1 group M subtype B, UniProt P12497, Q495K); test: HIV-1 protease inhibition (FRET substrate cleavage), NL4-3 (WT); type: biochemical; details: FRET substrate I, 0.1 M sodium acetate, 1.0 M NaCl, 1.0 mM EDTA, 1.0 mM DTT, 10% DMSO, 1 mg/mL BSA, pH 4.7, fluorescence 340/490 nm, read-out: IC50 of HIV-1 protease inhibitors
T5 construct: made in house; host or cells: E. coli (pET21b)
Method: as §1

Structure (SMILES)	resistance of MDR variants to inhibitors (in words) [1]	IC50 (HIV-1 protease MDR 1385) [nM]	IC50 (HIV-1 protease MDR 769) [nM]	IC50 (HIV-1 protease MDR 3761) [nM]	IC50 (HIV-1 protease MDR 807) [nM]	IC50 (HIV-1 protease NL4-3) [nM]
Cc1cccc(C)c1OCC(=O)N[C@@H](Cc1ccccc1)[C@@H](O)C[C@H](Cc1ccccc1)NC(=O)[C@H](C(C)C)N1CCCNC1=O [LPV, lopinavir]	lower relative resistance	–	–	–	–	–
COC(=O)N[C@H](C(=O)N[C@@H](Cc1ccccc1)[C@@H](O)CN(Cc1ccc(-c2ccccn2)cc1)NC(=O)[C@@H](NC(=O)OC)C(C)(C)C)C(C)(C)C [ATV, atazanavir]	–	4.6	2.9	2.2	7.6	0.19
CC(C)CN(C[C@@H](O)[C@H](Cc1ccccc1)NC(=O)O[C@H]1CCOC1)S(=O)(=O)c1ccc(N)cc1 [APV, amprenavir]	–	3.1	4.8	4.1	2.9	0.43
Cc1c(O)cccc1C(=O)N[C@@H](CSc1ccccc1)[C@H](O)CN1C[C@H]2CCCC[C@H]2C[C@H]1C(=O)NC(C)(C)C [NFV, nelfinavir]	–	230	110	430	210	1.6
CCC[C@@]1(CCc2ccccc2)CC(O)=C([C@H](CC)c2cccc(NS(=O)(=O)c3ccc(C(F)(F)F)cn3)c2)C(=O)O1 [TPV, tipranavir]	–	2.8	0.65	0.63	0.63	0.24
